Results as given in patent publication US9969694B2, “N-(arylalkyl)-N′-pyrazolyl-urea, thiourea, guanidine and cyanoguanidine compounds as TrkA kinase inhibitors” (Array BioPharma Inc., priority 2012, dated 2018).

Columns and labels:
Experiment in all cases: Off-Target Kinase Profiling
Assay type in all cases: biochemical
Conditions in all cases: 10 μM; ATP near Km
PKCbetaII = biological target: T1, PKCbetaII (Homo sapiens, UniProt P05771)
T1 construct: purchased Millipore, Inc. (KinaseProfiler service)
Method: (§1) Representative compounds of the invention (Examples 33 and 10) were tested for off-target kinase activity at a concentration of 10 μM by Millipore, Inc. in their KinaseProfiler™ service against all the kinases available in their full kinase panel. Compounds were run in duplicate at a concentration of ATP near the Km for each individual kinase according to Millipore's specifications. The results are shown in Table B. Data are reported as percent of control (POC) and are the average of the two replicates.

MRCKalpha = biological target: T2, MRCKalpha (Homo sapiens, UniProt Q5VT25)
T2 construct: purchased Millipore, Inc. (KinaseProfiler service)
Method: as §1

DRAK1 = biological target: T3, DRAK1 (Homo sapiens, UniProt Q9UEE5)
T3 construct: purchased Millipore, Inc. (KinaseProfiler service)
Method: as §1

CAMK4 = biological target: T4, CAMK4 (Homo sapiens, UniProt Q16566)
T4 construct: purchased Millipore (KinaseProfiler service)
Method: as §1

PrKX = biological target: T5, PrKX (Homo sapiens, UniProt P51817)
T5 construct: purchased Millipore, Inc. (KinaseProfiler service)
Method: as §1

Plk3 = biological target: T6, Plk3 (Homo sapiens, UniProt Q9H4B4)
T6 construct: purchased Millipore, Inc. (KinaseProfiler service)
Method: as §1

CK2 = biological target: T7, CK2 (Homo sapiens, UniProt P68400)
T7 construct: purchased Millipore, Inc. (KinaseProfiler service)
Method: as §1

CAMK2g = biological target: T8, CAMK2g (Homo sapiens, UniProt Q13555)
T8 construct: purchased Millipore (KinaseProfiler service)
Method: as §1

EphB1 = biological target: T9, EphB1 (Homo sapiens, UniProt P54762)
T9 construct: purchased Millipore, Inc. (KinaseProfiler service)
Method: as §1

VRK2 = biological target: T10, VRK2 (Homo sapiens, UniProt Q86Y07)
T10 construct: purchased Millipore, Inc. (KinaseProfiler service)
Method: as §1

MKK6 = biological target: T11, MKK6 (Homo sapiens, UniProt P52564)
T11 construct: purchased Millipore, Inc. (KinaseProfiler service)
Method: as §1

CAMK1 = biological target: T12, CAMK1 (Homo sapiens, UniProt Q14012)
T12 construct: purchased Millipore (KinaseProfiler service)
Method: as §1

TAO3 = biological target: T13, TAO3 (Homo sapiens, UniProt Q9H2K8)
T13 construct: purchased Millipore, Inc. (KinaseProfiler service)
Method: as §1

Lck = biological target: T14, Lck (Homo sapiens, UniProt P06239)
T14 construct: purchased Millipore, Inc. (KinaseProfiler service)
Method: as §1

SIK = biological target: T15, SIK (Homo sapiens, UniProt P57059)
T15 construct: purchased Millipore, Inc. (KinaseProfiler service)
Method: as §1

TEC Activated = biological target: T16, TEC Activated (Homo sapiens, UniProt P42680)
T16 construct: purchased Millipore, Inc. (KinaseProfiler service)
T16 sequence (P42680 whole entry): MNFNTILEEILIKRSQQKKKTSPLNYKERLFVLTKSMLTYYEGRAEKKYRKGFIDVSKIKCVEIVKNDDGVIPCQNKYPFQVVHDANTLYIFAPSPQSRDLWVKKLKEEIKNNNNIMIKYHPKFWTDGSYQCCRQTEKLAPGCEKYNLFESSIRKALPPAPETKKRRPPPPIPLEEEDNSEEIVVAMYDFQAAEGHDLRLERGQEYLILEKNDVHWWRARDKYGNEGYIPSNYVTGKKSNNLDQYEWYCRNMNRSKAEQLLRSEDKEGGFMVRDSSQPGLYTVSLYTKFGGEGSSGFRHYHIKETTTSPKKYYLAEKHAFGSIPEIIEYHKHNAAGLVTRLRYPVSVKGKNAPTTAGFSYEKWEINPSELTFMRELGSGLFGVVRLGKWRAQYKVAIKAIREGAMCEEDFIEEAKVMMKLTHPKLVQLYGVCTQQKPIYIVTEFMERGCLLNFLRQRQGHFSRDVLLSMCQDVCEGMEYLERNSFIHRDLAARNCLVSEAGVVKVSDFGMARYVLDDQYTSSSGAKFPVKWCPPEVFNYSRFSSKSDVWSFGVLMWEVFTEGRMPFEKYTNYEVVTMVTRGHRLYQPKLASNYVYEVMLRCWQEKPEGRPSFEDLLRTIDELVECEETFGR
Method: as §1

DMPK = biological target: T17, DMPK (Homo sapiens, UniProt Q09013)
T17 construct: purchased Millipore, Inc. (KinaseProfiler service)
Method: as §1

EphA2 = biological target: T18, EphA2 (Homo sapiens, UniProt P29317)
T18 construct: purchased Millipore, Inc. (KinaseProfiler service)
T18 sequence (P29317 24-976): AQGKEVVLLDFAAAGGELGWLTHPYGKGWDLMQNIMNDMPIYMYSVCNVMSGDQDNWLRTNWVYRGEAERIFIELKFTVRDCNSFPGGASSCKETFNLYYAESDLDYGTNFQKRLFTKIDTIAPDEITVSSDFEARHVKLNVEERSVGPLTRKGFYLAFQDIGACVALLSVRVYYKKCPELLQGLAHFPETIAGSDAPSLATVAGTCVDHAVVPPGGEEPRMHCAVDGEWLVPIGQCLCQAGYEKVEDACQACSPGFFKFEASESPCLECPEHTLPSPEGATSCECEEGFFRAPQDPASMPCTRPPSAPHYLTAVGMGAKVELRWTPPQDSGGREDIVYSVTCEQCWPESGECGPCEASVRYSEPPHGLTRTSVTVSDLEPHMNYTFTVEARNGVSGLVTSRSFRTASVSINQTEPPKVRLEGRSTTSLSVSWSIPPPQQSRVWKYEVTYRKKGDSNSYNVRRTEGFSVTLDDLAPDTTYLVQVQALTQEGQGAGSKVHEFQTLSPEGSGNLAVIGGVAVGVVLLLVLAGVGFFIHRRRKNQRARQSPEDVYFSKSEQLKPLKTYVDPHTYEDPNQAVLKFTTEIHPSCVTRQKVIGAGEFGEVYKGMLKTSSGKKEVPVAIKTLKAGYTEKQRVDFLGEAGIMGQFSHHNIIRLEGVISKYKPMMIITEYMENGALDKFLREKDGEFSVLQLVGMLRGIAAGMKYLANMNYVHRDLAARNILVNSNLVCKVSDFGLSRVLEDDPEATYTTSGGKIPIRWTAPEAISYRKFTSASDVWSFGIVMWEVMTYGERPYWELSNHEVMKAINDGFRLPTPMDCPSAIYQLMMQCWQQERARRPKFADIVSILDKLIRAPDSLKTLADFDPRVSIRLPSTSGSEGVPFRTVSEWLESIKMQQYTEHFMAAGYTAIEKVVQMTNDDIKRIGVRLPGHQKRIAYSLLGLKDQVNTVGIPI
Method: as §1

TAO2 = biological target: T19, TAO2 (Homo sapiens, UniProt Q9UL54)
T19 construct: purchased Millipore, Inc. (KinaseProfiler service)
Method: as §1

MST1 = biological target: T20, MST1 (Homo sapiens, UniProt Q13043)
T20 construct: purchased Millipore, Inc. (KinaseProfiler service)
Method: as §1

AKT1 = biological target: T21, AKT1 (Homo sapiens, UniProt P31749)
T21 construct: purchased Millipore (KinaseProfiler service)
Method: as §1

Flt3 = biological target: T22, Flt3 (Homo sapiens, UniProt P36888)
T22 construct: purchased Millipore, Inc. (KinaseProfiler service)
Method: as §1

BTK = biological target: T23, BTK (Homo sapiens, UniProt Q06187)
T23 construct: purchased Millipore (KinaseProfiler service)
Method: as §1

IKKalpha = biological target: T24, IKKalpha (Homo sapiens, UniProt O15111)
T24 construct: purchased Millipore, Inc. (KinaseProfiler service)
Method: as §1

FAK = biological target: T25, FAK (Homo sapiens, UniProt Q05397)
T25 construct: purchased Millipore, Inc. (KinaseProfiler service)
Method: as §1

Flt4 = biological target: T26, Flt4 (Homo sapiens, UniProt P35916)
T26 construct: purchased Millipore, Inc. (KinaseProfiler service)
Method: as §1

EphA4 = biological target: T27, EphA4 (Homo sapiens, UniProt P54764)
T27 construct: purchased Millipore, Inc. (KinaseProfiler service)
Method: as §1

MAP4K2 = biological target: T28, MAP4K2 (Homo sapiens, UniProt Q12851)
T28 construct: purchased Millipore, Inc. (KinaseProfiler service)
Method: as §1

Fer = biological target: T29, Fer (Homo sapiens, UniProt P16591)
T29 construct: purchased Millipore, Inc. (KinaseProfiler service)
Method: as §1

Rse = biological target: T30, Rse (Homo sapiens, UniProt Q06418)
T30 construct: purchased Millipore, Inc. (KinaseProfiler service)
Method: as §1

Rsk4 = biological target: T31, Rsk4 (Homo sapiens, UniProt Q9UK32)
T31 construct: purchased Millipore, Inc. (KinaseProfiler service)
T31 sequence (Q9UK32 whole entry): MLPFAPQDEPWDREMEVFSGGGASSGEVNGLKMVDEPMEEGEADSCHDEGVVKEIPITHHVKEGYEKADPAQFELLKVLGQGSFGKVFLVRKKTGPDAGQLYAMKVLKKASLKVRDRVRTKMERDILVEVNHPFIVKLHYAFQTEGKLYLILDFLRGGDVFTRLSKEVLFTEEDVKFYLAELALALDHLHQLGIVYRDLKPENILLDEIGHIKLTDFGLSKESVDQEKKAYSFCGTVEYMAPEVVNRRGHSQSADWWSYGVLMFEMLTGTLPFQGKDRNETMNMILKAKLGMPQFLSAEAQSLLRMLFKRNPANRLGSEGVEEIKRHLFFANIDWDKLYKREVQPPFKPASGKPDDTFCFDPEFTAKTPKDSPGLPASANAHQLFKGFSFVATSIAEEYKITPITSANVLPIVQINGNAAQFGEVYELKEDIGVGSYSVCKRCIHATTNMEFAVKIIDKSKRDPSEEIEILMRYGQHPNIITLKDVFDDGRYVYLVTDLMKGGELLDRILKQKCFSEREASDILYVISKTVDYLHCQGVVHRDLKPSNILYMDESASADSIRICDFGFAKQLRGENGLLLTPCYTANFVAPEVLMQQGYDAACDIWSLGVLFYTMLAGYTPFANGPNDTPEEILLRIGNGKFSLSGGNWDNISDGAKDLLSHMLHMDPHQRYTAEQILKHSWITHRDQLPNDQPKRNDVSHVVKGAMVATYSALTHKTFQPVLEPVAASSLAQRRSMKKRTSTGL
Method: as §1

HIPK2 = biological target: T32, HIPK2 (Homo sapiens, UniProt Q9H2X6)
T32 construct: purchased Millipore, Inc. (KinaseProfiler service)
Method: as §1

ALK = biological target: T33, ALK (Homo sapiens, UniProt Q9UM73)
T33 construct: purchased Millipore (KinaseProfiler service)
Method: as §1

MKK7beta = biological target: T34, MKK7beta (Homo sapiens, UniProt O14733)
T34 construct: purchased Millipore, Inc. (KinaseProfiler service)
Method: as §1

EphA3 = biological target: T35, EphA3 (Homo sapiens, UniProt P29320)
T35 construct: purchased Millipore, Inc. (KinaseProfiler service)
Method: as §1

GRK7 = biological target: T36, GRK7 (Homo sapiens, UniProt Q8WTQ7)
T36 construct: purchased Millipore, Inc. (KinaseProfiler service)
Method: as §1

PKCdelta = biological target: T37, PKCdelta (Homo sapiens, UniProt Q05655)
T37 construct: purchased Millipore, Inc. (KinaseProfiler service)
Method: as §1

Ros = biological target: T38, Ros (Homo sapiens, UniProt P08922)
T38 construct: purchased Millipore, Inc. (KinaseProfiler service)
T38 sequence (P08922 28-2347): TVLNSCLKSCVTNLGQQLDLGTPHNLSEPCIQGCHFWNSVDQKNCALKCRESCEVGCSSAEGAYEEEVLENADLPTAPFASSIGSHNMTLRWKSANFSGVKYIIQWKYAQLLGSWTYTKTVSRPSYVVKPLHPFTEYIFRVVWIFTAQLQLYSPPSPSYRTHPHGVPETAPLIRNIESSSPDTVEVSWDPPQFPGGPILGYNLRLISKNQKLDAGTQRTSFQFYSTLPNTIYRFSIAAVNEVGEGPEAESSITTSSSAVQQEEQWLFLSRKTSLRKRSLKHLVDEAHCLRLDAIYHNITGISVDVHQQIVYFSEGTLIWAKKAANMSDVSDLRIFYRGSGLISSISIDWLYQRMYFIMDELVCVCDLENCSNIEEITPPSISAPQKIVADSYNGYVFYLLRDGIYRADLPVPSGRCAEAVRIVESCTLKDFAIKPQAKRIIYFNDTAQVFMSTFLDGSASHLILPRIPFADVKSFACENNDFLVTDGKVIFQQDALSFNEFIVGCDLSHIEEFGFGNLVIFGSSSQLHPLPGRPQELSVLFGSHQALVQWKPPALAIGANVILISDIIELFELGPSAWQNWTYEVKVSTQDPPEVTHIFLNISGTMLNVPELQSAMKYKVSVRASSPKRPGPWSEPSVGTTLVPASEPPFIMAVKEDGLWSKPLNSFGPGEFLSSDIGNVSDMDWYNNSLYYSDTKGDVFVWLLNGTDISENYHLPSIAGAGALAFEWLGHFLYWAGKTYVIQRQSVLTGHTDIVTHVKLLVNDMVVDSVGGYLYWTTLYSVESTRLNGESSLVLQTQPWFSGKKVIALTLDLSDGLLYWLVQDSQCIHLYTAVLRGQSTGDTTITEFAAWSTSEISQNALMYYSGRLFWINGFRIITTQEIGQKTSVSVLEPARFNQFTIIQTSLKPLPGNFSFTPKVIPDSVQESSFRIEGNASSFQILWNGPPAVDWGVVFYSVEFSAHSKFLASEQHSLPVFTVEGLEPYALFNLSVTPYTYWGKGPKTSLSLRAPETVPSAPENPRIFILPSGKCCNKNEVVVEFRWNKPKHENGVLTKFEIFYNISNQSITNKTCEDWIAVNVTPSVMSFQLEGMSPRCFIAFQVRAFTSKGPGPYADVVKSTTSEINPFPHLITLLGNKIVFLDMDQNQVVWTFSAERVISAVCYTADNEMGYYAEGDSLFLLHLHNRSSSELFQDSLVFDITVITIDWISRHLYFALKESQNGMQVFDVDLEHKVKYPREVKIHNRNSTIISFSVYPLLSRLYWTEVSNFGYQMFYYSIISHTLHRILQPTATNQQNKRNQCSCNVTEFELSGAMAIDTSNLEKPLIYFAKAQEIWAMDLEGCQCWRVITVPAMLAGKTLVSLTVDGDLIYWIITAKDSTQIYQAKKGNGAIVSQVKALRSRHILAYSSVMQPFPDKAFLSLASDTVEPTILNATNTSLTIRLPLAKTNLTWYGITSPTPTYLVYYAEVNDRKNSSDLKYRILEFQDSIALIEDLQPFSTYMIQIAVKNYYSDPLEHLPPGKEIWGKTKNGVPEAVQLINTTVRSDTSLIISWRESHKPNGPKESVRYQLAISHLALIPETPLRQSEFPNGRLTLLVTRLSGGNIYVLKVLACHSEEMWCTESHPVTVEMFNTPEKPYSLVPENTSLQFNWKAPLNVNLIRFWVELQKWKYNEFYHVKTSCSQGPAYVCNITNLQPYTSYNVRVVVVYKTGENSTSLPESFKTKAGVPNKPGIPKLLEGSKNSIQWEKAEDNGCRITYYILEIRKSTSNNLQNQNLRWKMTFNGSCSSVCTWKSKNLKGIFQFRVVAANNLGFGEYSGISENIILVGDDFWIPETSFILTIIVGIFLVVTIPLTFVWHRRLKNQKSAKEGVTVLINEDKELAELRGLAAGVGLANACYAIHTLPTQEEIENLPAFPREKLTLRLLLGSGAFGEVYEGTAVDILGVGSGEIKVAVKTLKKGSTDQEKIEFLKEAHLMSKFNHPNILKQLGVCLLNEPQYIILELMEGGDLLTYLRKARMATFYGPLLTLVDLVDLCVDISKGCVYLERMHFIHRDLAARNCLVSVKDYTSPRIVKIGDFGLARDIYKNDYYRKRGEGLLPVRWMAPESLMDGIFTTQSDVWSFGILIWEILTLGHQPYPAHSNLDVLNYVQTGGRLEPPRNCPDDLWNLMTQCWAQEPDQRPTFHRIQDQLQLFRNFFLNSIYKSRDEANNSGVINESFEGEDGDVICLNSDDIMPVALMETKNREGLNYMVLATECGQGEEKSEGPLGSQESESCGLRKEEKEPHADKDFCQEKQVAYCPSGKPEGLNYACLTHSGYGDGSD
Method: as §1

NEK2 = biological target: T39, NEK2 (Homo sapiens, UniProt P51955)
T39 construct: purchased Millipore, Inc. (KinaseProfiler service)
T39 sequence (P51955 whole entry): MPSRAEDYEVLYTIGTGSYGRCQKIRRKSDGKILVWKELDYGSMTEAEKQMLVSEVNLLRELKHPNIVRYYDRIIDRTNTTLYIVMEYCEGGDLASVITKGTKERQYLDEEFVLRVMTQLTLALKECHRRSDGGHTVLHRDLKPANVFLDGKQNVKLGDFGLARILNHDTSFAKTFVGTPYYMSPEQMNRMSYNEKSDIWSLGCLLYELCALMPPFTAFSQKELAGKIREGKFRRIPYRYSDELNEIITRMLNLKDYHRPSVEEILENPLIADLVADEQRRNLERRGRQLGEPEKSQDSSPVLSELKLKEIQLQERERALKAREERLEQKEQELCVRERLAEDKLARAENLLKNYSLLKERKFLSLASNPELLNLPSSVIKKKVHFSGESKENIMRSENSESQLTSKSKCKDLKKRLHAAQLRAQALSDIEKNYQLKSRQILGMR
Method: as §1

TAO1 = biological target: T40, TAO1 (Homo sapiens, UniProt Q7L7X3)
T40 construct: purchased Millipore, Inc. (KinaseProfiler service)
Method: as §1

mTOR/FKBP12 = biological target: T41, mTOR/FKBP12 (Homo sapiens, UniProt P42345)
T41 construct: purchased Millipore, Inc. (KinaseProfiler service)
Method: as §1

COCc1ccc(C2CCC2)c(CNC(=O)Nc2c(C)c(-c3cnc(C)nc3)nn2-c2ccccc2)c1 [Example 10, 1-(2-cyclobutyl-5-(methoxymethyl)benzyl)-3-(4-methyl-3-(2-methylpyrimidin-5-yl)-1-phenyl-1H-pyrazol-5-yl)urea]
Avg POC PKCbetaII (PKCbetaII): 94 POC
Avg POC MRCKalpha (MRCKalpha): 122 POC
Avg POC DRAK1 (DRAK1): 92.5 POC
Avg POC CAMK4 (CAMK4): 144.5 POC
Avg POC PrKX (PrKX): 73.5 POC
Avg POC Plk3 (Plk3): 111 POC
Avg POC CK2 (CK2): 94.5 POC
Avg POC CAMK2g (CAMK2g): 101 POC
Avg POC EphB1 (EphB1): 131 POC
Avg POC VRK2 (VRK2): 90 POC
Avg POC MKK6 (MKK6): 131.5 POC
Avg POC CAMK1 (CAMK1): 92 POC
Avg POC TAO3 (TAO3): 88.5 POC
Avg POC Lck (Lck): 75.5 POC
Avg POC SIK (SIK): 104 POC
Avg POC TEC Activated (TEC Activated): 88.5 POC
Avg POC DMPK (DMPK): 101.5 POC
Avg POC EphA2 (EphA2): 103 POC
Avg POC TAO2 (TAO2): 97.5 POC
Avg POC MST1 (MST1): 87.5 POC
Avg POC AKT1 (AKT1): 105 POC
Avg POC Flt3 (Flt3): 54 POC
Avg POC BTK (BTK): 117.5 POC
Avg POC IKKalpha (IKKalpha): 112.5 POC
Avg POC FAK (FAK): 96.5 POC
Avg POC Flt4 (Flt4): 88 POC
Avg POC EphA4 (EphA4): 105.5 POC
Avg POC MAP4K2 (MAP4K2): 95.5 POC
Avg POC Fer (Fer): 96.5 POC
Avg POC Rse (Rse): 103 POC
Avg POC Rsk4 (Rsk4): 87 POC
Avg POC HIPK2 (HIPK2): 102.5 POC
Avg POC ALK (ALK): 102.5 POC
Avg POC MKK7beta (MKK7beta): 132.5 POC
Avg POC EphA3 (EphA3): 119 POC
Avg POC GRK7 (GRK7): 105 POC
Avg POC PKCdelta (PKCdelta): 91.5 POC
Avg POC Ros (Ros): 97.5 POC
Avg POC NEK2 (NEK2): 98 POC
Avg POC TAO1 (TAO1): 111 POC
Avg POC mTOR/FKBP12 (mTOR/FKBP12): 97.5 POC

COCc1ccc(C(F)(F)F)c(CNC(=O)Nc2c(C)c(-c3cnn(C)c3)nn2-c2ccccc2)c1 [Example 33, 1-(1′,4-dimethyl-1-phenyl-1H,1′H-[3,4′-bipyrazol]-5-yl)-3-(5-(methoxymethyl)-2-(trifluoromethyl)benzyl)urea]
Avg POC PKCbetaII (PKCbetaII): 96 POC
Avg POC MRCKalpha (MRCKalpha): 147 POC
Avg POC DRAK1 (DRAK1): 141.5 POC
Avg POC CAMK4 (CAMK4): 149 POC
Avg POC PrKX (PrKX): 146.5 POC
Avg POC Plk3 (Plk3): 109.5 POC
Avg POC CK2 (CK2): 94.5 POC
Avg POC CAMK2g (CAMK2g): 112 POC
Avg POC EphB1 (EphB1): 133 POC
Avg POC VRK2 (VRK2): 90.5 POC
Avg POC MKK6 (MKK6): 143 POC
Avg POC CAMK1 (CAMK1): 111.5 POC
Avg POC TAO3 (TAO3): 89.5 POC
Avg POC Lck (Lck): 93 POC
Avg POC SIK (SIK): 139 POC
Avg POC TEC Activated (TEC Activated): 138.5 POC
Avg POC DMPK (DMPK): 104 POC
Avg POC EphA2 (EphA2): 126.5 POC
Avg POC TAO2 (TAO2): 92.5 POC
Avg POC MST1 (MST1): 87.5 POC
Avg POC AKT1 (AKT1): 132 POC
Avg POC Flt3 (Flt3): 78.5 POC
Avg POC BTK (BTK): 125 POC
Avg POC IKKalpha (IKKalpha): 137.5 POC
Avg POC FAK (FAK): 99 POC
Avg POC Flt4 (Flt4): 94 POC
Avg POC EphA4 (EphA4): 120 POC
Avg POC MAP4K2 (MAP4K2): 115.5 POC
Avg POC Fer (Fer): 90.5 POC
Avg POC Rse (Rse): 110 POC
Avg POC Rsk4 (Rsk4): 95 POC
Avg POC HIPK2 (HIPK2): 95 POC
Avg POC ALK (ALK): 116 POC
Avg POC MKK7beta (MKK7beta): 159 POC
Avg POC EphA3 (EphA3): 116.5 POC
Avg POC GRK7 (GRK7): 103 POC
Avg POC PKCdelta (PKCdelta): 93 POC
Avg POC Ros (Ros): 100.5 POC
Avg POC NEK2 (NEK2): 96 POC
Avg POC TAO1 (TAO1): 118.5 POC
Avg POC mTOR/FKBP12 (mTOR/FKBP12): 109.5 POC
